Measured values as given in patent US8846750B2, “Pharmaceutical and food compositions for preventing or treating diabetes or obesity” (Korea Ocean Research and Development Institute, priority 2010, dated 2014).
pIC50: −log10 of the molar value.

Target: T1, PTP-1b (Homo sapiens, UniProt P18031)
T1 construct: purchased Bioneer, Korea
T1 sequence (P18031 1-435): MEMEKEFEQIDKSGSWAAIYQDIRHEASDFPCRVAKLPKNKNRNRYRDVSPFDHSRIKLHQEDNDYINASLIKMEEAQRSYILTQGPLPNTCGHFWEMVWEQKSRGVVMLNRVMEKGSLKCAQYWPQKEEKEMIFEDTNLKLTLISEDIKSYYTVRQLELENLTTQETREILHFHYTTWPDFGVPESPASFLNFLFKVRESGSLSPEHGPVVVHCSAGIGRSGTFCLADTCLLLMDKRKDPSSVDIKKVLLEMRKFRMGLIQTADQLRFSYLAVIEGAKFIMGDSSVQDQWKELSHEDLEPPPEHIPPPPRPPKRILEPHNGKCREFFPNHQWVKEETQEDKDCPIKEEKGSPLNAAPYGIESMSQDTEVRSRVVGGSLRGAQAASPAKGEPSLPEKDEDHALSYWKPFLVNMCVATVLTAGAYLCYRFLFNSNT
Test: PTP-1b inhibitory activity of lobaric acid (control), pNPP assay
Format: biochemical
Details: read-out: IC50 against PTP-1b
Method: Meanwhile, the PTP-1b inhibitory activity of lobaric acid as a control was measured. PTP-1b used in the test was purchased from BIOMOL (USA). In order to spectroscopically measure the activity of the enzyme, about 0.2 μg/Ml of PTP-1b, PTP-1b buffer (50 mM citrate, pH 6.0, 0.1M NaCl, 1 mM EDTA, 1 mM DTT), lobaric acid, 4 mM pNPP were mixed, shaken lightly, and then reacted at 37° C. for 30 minutes, after which the absorbance at 405 nm was measured.

Compound: CCCCCc1c2c(cc(O)c1C(=O)O)OC(=O)c1c(cc(OC)cc1C(=O)CCCC)O2 [lobaric acid]
- pIC50: 6.06
